Reference: publication PMC9266449, “Dried Blood Spots as Matrix for Evaluation of Valproate Levels and the Immediate and Delayed Metabolomic Changes Induced by Single Valproate Dose Treatment” (International Journal of Molecular Sciences, 2022)
Where two headings read alike, the source gives them in different places. Each block holds one molecule with its values, some of them ahead of it.

Assays:
[1] = source not stated; cited from earlier work
[2] = human; cited from earlier work
[3] = rats; cited from earlier work
[4] = Pharmacokinetics of VPA from DBS drug levels after intravenous bolus in rats; assay type: in vivo; conditions: Sprague-Dawley, rat, dried blood spots (whole blood), iv bolus 200 mg/kg, mean ± SD; for AUC(0-t): read-out: Area under the curve (AUC0–8 h); for clearance: read-out: Clearance (CL) (converted); for half-life: read-out: HL Lambda Z (terminal elimination half-life) (converted); for MRT: read-out: Mean residence time (MRT); for Vd: read-out: Volume of distribution (Vd)
Experimental: Sprague-Dawley rats (7–8 weeks old, males: 10, females: 10) were obtained from the Comparative Medicine Center (CMC) of NUS. The rats were housed in a specific pathogen free animal facility (24 °C, 60% relative humidity) at CMC and kept on a 12-h light/dark cycle with free access to food and water. Twenty-four hours before the study, a polyethylene tubing (I.D. 0.58 mm, O.D. 0.965 mm, Becton Dickinson, Sparks, MD 21152, USA) was implanted into the right jugular vein under isoflurane anesthesia. This catheter was used for drug injection and blood sampling.
At 9 am on the study day, five rats from each gender were administered VPA intravenously at a dose of 200 mg/kg body weight (treatment group). The rest of the 5 rats from each gender were given sodium chloride 0.9% intravenously, as the placebo control group. Prior to VPA administration, blood samples (approximately 300 µL) from each of the 10 male rats and 10 female rats were collected and kept in an ice box until they were processed. After VPA/saline injection, blood samples were collected at 0.5, 2.5, 5, 8 and 24 h, respectively, from the 20 rats. The 6 time points were anticipated to capture the metabolite fluctuations in a day. Within 30 min of collection, the blood samples were spotted in duplicates of 25 µL onto Guthrie paper (UK Neonatal Screening Laboratories Network, Whatman 903®) and were left to dry in the fume hood for at least 3 h, the minimum time required for complete dryness. After drying, the DBS were punched, and the cores (6 mm) obtained were placed inside the respective Eppendorf tubes. All the acquired DBS were stored at −80 °C until processing for analysis. One DBS was used for metabolomic analysis and the other one was used for drug level quantification.
Extraction of VPA from DBS was carried out using 480 µL of acetonitrile and 20 µL of 1 N NaOH, vortexed for 1 min and followed by sonication for 5 min. The resulting extracts were centrifuged at 3500× g, 22 °C for 15 min [29, 30]. An amount of 400 µL of the supernatant were transferred into 15 mL Kimble centrifuge glass tubes for drying under a stream of nitrogen at 30 °C, followed by the removal of water using toluene and drying under nitrogen again. The dried sample was then derivatized using 50 µL MSTFA with 1% TMCS with incubation at 70 °C for an optimum period of 50 min. […] After vortexing for 1 min, 80 µL of the final volume was transferred into a 200 µL conical base inert glass insert, placed inside a 2 mL amber autosampler glass vial.
An assay for quantification of VPA concentrations in DBS was optimized in accordance to the International Conference of Harmonization (ICH) guideline. The settings were as follows: an injection temperature of 200 °C, ion source temperature of 220 °C, split ratio of 1:5, the starting temperature set at 90 °C for 0.2 min, with initial gradient ramp at 10 °C/min to 120 °C and held for 0.5 min. The temperature was then increased at 65 °C/min up to 285 °C and held for another 0.5 min. The temperature ramp was then reduced to 10 °C/min to reach a temperature of 291 °C and held for 0.2 min, before continuing at 60 °C/min to reach a final temperature of 300 °C, with a hold at 300 °C for 5 min. Selective ion monitoring (SIM) mode was applied for identifier ions with an m/z value of 201 and qualifying ions with m/z values of 145 and 129. A calibration curve was established with 6 concentrations, ranging from 0.5 µg/mL to 5 mg/mL.
Concentration-time profiles of VPA after intravenous bolus injection were fitted into a non-compartmental model (WinNonlin Professional, Version 5.1, Pharsight Corporation, Mountain View, CA, USA). The pharmacokinetic parameters obtained included the area under the DBS concentration versus time curve (AUC0–8 h), apparent volume of distribution (Vd) clearance (Cl), terminal elimination half-life (HL Lambda Z) and mean residence time (MRT) of VPA.

[5] = design: method as in PMID 390116; conditions: mean ± standard error; cited from earlier work
[6] = design: method as in PMID 390116; conditions: whole blood concentrations, cited from earlier work
[7] = design: method as in PMID 3146521; conditions: female rats, 200 mg/kg oral gavage, cited from earlier work
[8] = both sexes, all rats (male and female pooled)

Structure (SMILES): C[C@H](N)C(=O)O [Alanine]
LogP [1]: -0.68

Structure (SMILES): CC(C)CCC[C@@H](C)[C@H]1CC[C@H]2[C@@H]3CC=C4C[C@@H](O)CC[C@]4(C)[C@H]3CC[C@]12C [Cholesterol]
LogP [1]: 7.11

Structure (SMILES): CCCCCCCCCCCCCCCC(=O)O [Palmitic acid]
LogP [1]: 6.26

AUC(0-t) ([4]; female rats): 363 ± 18.7 µg·h/mL
clearance ([4]; female rats): 2 mL/min
half-life ([4]; female rats): 121 ± 14.4 min
MRT ([4]; female rats): 1.46 ± 0.4 h
Vd ([4]; female rats): 0.21 ± 0.01 L
AUC(0-t) ([4]; male rats): 126 ± 39.2 µg·h/mL
clearance ([4]; male rats): 8.5 mL/min
half-life ([4]; male rats): 103 ± 10.8 min
MRT ([4]; male rats): 1.14 ± 0.28 h
Vd ([4]; male rats): 0.82 ± 0.23 L
AUC(0-t) [4, 8]: 245 ± 133 µg·h/mL
clearance [4, 8]: 5.33 mL/min
half-life [4, 8]: 112 ± 15.6 min
MRT [4, 8]: 1.3 ± 0.36 h
Vd [4, 8]: 0.51 ± 0.36 L
Structure (SMILES): CCCC(CCC)C(=O)O [VPA, 2-propyl-pentanoic acid]
Protein bound [2]: 90%
Protein bound [3]: 64%
Plasma/whole blood concentrations ratio [5]: 1.46 ± 0.03
t1/2 ([6]; male rats, 150 mg/kg): 40.8 min
CL ([6]; rats dosed at 15 mg/kg): 0.525 ± 0.065 L/h
Vd ([6]; rats dosed at 15 mg/kg): 0.155 ± 0.025 L
AUC ([7]; plasma): 1019 ± 769 µg·h/mL
Maximum concentration (Cmax) at 0.5 h ([7]; plasma): 341 ± 18 µg/mL
t1/2 (plasma half-life) [7]: 1.0 ± 0.2 h
